Measurements: ChEMBL document CHEMBL1201862, “PubChem BioAssay data set” (2004)
Active and inactive are the calls of the source.

Columns and labels:
[1] = TRPM1 promoter luciferase reporter signal decrease, dose response, MITF inhibitor project, cell-based, SK-MEL-5, dry powder, set 9 (AID 651588); format: functional
[2] = biological target: T1, Sentrin-specific protease 8 (Homo sapiens, UniProt Q96LD8); format: functional;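 further: luminescence read-out of SENP8 inhibition, dose-response confirmation following an ultra-high-throughput screen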
T1 sequence (Q96LD8 whole entry): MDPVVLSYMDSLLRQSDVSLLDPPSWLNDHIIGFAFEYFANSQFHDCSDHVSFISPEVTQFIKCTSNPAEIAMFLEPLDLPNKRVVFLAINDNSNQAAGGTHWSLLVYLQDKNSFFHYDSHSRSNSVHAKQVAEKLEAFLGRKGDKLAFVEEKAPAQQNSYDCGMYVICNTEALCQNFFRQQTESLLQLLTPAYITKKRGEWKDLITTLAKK

[3] = SK-MEL-5 parental line viability, dose response, MITF inhibitor project, cell-based, CellTiter-Glo, dry powder, set 6 (AID 624429); format: functional
[4] = biological target: Intestinal-type alkaline phosphatase (Mus musculus, UniProt P24822); assay: mouse intestinal alkaline phosphatase activators, dose response, biochemical, luminescence, uHTS hits (AID 488783); format: functional
Procathepsin L = Procathepsin L (Homo sapiens, UniProt P07711)
Procathepsin L, sequence (P07711 whole entry): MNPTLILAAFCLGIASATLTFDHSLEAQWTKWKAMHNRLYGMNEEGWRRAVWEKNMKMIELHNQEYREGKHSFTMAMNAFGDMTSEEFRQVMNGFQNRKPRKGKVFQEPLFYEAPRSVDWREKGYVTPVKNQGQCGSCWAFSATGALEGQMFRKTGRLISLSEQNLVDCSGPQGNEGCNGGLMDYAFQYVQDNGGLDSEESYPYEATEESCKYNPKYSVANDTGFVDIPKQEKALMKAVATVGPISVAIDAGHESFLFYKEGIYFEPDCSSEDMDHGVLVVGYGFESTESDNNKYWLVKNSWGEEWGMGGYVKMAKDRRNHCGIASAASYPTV

Streptokinase A = biological target: T2, Streptokinase A (Streptococcus pyogenes serotype M1, UniProt P10520); assay: S. pyogenes streptokinase expression inhibitors, potency, dose response, plasminogen activation absorbance, OD405 (AID 1914); format: functional, Streptococcus pyogenes M1 GAS;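 further: secreted streptokinase activity via plasminogen activation per viability signal from cell pellet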
T2 sequence (P10520 whole entry): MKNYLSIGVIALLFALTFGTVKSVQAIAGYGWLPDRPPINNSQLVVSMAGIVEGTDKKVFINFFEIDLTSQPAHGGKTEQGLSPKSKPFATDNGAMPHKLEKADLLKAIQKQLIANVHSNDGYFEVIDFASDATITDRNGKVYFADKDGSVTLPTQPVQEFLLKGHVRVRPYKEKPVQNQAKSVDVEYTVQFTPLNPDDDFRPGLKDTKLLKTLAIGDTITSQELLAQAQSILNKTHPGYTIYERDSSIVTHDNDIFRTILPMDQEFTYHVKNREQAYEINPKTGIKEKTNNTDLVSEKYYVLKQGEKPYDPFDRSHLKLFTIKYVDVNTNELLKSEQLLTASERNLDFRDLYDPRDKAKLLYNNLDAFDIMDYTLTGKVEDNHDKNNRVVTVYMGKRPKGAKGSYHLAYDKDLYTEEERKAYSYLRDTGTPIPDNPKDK

[5] = system: Streptococcus sp. 'group A'; assay: growth inhibition of control SK(-) GAS strain, dose response, counter-screen for streptokinase expression inhibitor project, luminescence, kanamycin, BacTiterGlo, confirmation (AID 1900); format: functional, organism-based
[6] = THP-1 cell cytotoxicity, dose response, cytotoxicity control for Vif-APOBEC3G degradation inhibitor project, THP-1 cells (AID 1117359); format: functional; settings: Human immunodeficiency virus 1, THP-1
[7] = biological target: T3, RNA-binding protein pos-1 (Caenorhabditis elegans, UniProt G5EF15); assay: inhibitors of POS-1/mex-3 RNA binding, dose response, biochemical, fluorescence polarization (AID 1964);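 further: purified POS-1 fused to maltose binding protein made in E. coli; potency of compounds blocking POS-1 binding to fluorescent RNA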
T3 sequence (G5EF15 whole entry): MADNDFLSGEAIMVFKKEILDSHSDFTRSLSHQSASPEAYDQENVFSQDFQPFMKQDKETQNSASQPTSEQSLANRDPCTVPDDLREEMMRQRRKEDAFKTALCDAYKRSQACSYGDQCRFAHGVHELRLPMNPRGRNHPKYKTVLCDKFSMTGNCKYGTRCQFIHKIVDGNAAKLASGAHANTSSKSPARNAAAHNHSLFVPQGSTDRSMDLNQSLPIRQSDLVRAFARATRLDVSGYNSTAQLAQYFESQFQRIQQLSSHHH

[8] = inhibitors of intracellular T. cruzi replication, confirmation, NIH3T3 host cells, beta-gal luminescence (AID 2044); format: functional, cell-based;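 further: intracellular parasites grown in NIH/3T3 mouse fibroblasts as host cells; luminescent beta-galactosidase reporter signal from transgenic T. cruzi replicating inside host cells; inhibitors lower the luminescence signal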
[9] = biological target: Macrophage colony-stimulating factor 1 receptor (Homo sapiens, UniProt P07333); format: functional;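 further: value comes from the Navigating the Kinome screening panel, CSF1R member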
[10] = biological target: Leukocyte tyrosine kinase receptor (Homo sapiens, UniProt P29376); assay: Navigating the Kinome. Panel member name: LTK; format: functional
[11] = biological target: Calcium/calmodulin-dependent protein kinase type II subunit delta (Homo sapiens, UniProt Q13557); format: functional
Calcium/calmodulin-dependent protein kinase type II subunit delta, sequence (Q13557 whole entry): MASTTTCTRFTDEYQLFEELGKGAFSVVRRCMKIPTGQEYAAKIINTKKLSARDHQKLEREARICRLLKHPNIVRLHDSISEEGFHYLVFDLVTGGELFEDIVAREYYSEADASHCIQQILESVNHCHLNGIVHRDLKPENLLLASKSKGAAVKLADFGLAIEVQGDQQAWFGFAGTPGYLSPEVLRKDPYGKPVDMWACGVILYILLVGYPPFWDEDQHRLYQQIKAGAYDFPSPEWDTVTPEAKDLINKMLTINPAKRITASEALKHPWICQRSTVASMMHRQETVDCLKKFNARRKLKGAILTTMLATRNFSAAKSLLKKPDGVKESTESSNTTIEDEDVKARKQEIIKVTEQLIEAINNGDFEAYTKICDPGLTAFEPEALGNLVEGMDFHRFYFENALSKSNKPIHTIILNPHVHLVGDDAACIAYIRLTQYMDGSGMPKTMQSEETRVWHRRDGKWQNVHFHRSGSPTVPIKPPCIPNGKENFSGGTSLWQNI

[12] = biological target: Tyrosine-protein kinase Fyn (Homo sapiens, UniProt P06241); format: functional
Misshapen-like kinase 1 = Misshapen-like kinase 1 (Homo sapiens, UniProt Q8N4C8); format: functional;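 further: kinome panel screen with MINK as the panel member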
Misshapen-like kinase 1, sequence (Q8N4C8 whole entry): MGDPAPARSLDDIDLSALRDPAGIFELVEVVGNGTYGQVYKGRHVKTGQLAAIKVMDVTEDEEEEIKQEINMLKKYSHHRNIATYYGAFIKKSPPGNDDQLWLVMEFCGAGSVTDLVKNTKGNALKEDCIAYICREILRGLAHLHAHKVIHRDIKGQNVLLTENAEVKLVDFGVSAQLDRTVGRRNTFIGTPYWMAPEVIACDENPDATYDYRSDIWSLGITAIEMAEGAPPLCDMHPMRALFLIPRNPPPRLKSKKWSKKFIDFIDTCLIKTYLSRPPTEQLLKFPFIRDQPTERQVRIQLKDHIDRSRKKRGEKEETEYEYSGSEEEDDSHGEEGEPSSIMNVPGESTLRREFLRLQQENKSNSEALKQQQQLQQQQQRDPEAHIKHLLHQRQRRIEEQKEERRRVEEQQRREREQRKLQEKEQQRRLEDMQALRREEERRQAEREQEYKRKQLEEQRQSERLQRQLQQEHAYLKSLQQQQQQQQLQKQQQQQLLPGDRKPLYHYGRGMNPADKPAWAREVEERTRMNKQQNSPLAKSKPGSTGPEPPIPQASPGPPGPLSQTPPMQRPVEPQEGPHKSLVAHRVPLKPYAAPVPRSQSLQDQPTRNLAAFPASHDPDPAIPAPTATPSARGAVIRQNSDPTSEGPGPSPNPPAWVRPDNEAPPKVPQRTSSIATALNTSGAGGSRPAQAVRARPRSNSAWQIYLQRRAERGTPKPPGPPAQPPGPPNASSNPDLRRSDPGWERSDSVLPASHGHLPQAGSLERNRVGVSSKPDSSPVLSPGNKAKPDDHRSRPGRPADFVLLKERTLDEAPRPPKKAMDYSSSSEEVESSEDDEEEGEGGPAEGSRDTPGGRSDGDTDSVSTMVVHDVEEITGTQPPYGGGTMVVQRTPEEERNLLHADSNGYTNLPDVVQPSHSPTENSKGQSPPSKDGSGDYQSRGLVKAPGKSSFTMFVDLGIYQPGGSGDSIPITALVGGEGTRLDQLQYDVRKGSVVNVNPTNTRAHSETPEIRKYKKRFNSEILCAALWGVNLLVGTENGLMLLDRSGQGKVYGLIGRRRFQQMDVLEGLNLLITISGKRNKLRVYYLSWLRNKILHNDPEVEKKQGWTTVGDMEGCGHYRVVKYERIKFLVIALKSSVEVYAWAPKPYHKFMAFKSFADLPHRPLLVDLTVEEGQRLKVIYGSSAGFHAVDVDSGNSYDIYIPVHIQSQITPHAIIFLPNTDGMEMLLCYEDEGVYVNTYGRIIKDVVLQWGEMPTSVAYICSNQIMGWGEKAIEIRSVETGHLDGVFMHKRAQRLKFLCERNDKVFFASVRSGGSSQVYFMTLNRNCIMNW

[13] = biological target: cAMP-dependent protein kinase catalytic subunit PRKX (Homo sapiens, UniProt P51817); format: functional
[14] = biological target: Cell division cycle 7-related protein kinase (Homo sapiens, UniProt O00311); format: functional;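 further: value obtained from a kinome-wide kinase panel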
Cell division cycle 7-related protein kinase, sequence (O00311 whole entry): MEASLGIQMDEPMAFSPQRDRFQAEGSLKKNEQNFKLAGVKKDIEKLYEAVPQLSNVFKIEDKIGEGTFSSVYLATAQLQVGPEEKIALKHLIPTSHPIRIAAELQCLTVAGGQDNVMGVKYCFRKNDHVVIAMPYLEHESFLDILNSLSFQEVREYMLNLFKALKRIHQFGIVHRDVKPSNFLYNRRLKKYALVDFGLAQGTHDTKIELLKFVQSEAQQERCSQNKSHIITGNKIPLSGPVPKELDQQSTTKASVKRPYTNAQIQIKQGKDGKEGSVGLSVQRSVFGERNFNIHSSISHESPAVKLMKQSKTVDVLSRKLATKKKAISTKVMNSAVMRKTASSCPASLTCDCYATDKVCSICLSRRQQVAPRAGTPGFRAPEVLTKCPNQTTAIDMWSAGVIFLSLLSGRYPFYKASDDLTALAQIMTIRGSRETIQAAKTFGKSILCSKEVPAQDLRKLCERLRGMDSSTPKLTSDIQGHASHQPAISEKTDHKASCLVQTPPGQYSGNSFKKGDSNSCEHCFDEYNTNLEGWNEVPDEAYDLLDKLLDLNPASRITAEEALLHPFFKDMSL

[15] = biological target: Receptor-type tyrosine-protein kinase FLT3 (Homo sapiens, UniProt P36888); format: functional;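 further: FLT3 was tested as one member of a kinome-wide kinase panel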
[16] = biological target: MAP kinase-activated protein kinase 5 (Homo sapiens, UniProt Q8IW41); format: functional;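 further: measured as one member of a kinome panel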
[17] = biological target: Serine/threonine-protein kinase pim-3 (Homo sapiens, UniProt Q86V86); format: functional;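 further: value obtained as one member of a broad kinase panel profiling effort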
[18] = biological target: Mitogen-activated protein kinase 8 (Homo sapiens, UniProt P45983); format: functional;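 further: value comes from one member of a kinome-wide kinase profiling panel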
[19] = biological target: Serine/threonine-protein kinase pim-1 (Homo sapiens, UniProt P11309); format: functional
Serine/threonine-protein kinase pim-1, sequence (P11309 whole entry): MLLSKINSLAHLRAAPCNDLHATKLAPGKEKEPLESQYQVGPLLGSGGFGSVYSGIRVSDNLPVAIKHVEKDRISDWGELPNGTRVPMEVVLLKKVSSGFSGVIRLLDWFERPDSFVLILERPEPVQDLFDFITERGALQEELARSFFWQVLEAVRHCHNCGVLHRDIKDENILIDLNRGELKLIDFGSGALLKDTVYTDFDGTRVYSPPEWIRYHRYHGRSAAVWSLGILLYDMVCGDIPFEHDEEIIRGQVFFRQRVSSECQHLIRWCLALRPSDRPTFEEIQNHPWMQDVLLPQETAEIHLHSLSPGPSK

SRSF protein kinase 1 = SRSF protein kinase 1 (Homo sapiens, UniProt Q96SB4); format: functional;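 further: measured as one member of a kinome-wide kinase profiling panel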
[20] = biological target: Serine/threonine-protein kinase D3 (Homo sapiens, UniProt O94806); format: functional;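 further: determined within a kinase panel screen, with PRKCN as the panel member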
Serine/threonine-protein kinase D3, sequence (O94806 whole entry): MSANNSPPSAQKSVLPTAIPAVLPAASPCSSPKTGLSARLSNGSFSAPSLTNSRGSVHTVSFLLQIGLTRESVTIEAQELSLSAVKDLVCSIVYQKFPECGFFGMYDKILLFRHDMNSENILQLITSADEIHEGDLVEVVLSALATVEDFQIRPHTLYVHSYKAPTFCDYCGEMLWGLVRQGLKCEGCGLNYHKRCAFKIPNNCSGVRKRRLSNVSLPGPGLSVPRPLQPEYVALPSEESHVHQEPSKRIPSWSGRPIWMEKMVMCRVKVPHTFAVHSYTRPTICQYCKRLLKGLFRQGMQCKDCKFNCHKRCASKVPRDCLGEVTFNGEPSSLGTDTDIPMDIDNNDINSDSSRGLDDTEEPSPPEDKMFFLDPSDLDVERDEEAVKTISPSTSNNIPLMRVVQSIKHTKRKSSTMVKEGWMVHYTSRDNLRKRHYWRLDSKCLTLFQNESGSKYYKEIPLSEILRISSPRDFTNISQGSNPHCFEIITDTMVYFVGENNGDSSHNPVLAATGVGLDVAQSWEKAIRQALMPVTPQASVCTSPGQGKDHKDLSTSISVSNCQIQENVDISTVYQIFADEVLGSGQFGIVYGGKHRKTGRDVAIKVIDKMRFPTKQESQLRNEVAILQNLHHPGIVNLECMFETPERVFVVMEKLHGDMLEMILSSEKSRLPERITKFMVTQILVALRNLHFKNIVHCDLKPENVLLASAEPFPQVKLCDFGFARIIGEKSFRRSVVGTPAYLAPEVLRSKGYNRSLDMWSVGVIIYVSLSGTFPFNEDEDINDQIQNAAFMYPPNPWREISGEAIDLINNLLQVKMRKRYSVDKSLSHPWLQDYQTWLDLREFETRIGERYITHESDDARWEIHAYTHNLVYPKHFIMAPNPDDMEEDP

[21] = biological target: Serine/threonine-protein kinase DCLK1 (Homo sapiens, UniProt O15075); format: functional;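 further: affinity for DCLK1 (listed as DCAMKL1) measured as one member of a kinome-wide kinase profiling panel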
[22] = biological target: Dual specificity tyrosine-phosphorylation-regulated kinase 1B (Homo sapiens, UniProt Q9Y463); assay: Navigating the Kinome. Panel member name: DYRK1B; format: functional
[23] = biological target: Testis-specific serine/threonine-protein kinase 2 (Homo sapiens, UniProt Q96PF2); format: functional;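 further: part of the Navigating the Kinome panel, target entry STK22B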
Testis-specific serine/threonine-protein kinase 2, sequence (Q96PF2 whole entry): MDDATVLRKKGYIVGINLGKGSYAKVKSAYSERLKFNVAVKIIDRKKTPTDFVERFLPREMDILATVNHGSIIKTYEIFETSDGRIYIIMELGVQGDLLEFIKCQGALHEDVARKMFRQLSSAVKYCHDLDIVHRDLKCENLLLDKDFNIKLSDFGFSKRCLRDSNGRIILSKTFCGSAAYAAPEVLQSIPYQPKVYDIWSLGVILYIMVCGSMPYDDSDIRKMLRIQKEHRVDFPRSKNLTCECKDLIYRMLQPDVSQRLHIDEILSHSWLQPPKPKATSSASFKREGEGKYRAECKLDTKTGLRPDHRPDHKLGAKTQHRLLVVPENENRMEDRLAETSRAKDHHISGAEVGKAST

[24] = biological target: Inhibitor of nuclear factor kappa-B kinase subunit epsilon (Homo sapiens, UniProt Q14164); assay: Navigating the Kinome. Panel member name: IKBKE; format: functional
Inhibitor of nuclear factor kappa-B kinase subunit epsilon, sequence (Q14164 whole entry): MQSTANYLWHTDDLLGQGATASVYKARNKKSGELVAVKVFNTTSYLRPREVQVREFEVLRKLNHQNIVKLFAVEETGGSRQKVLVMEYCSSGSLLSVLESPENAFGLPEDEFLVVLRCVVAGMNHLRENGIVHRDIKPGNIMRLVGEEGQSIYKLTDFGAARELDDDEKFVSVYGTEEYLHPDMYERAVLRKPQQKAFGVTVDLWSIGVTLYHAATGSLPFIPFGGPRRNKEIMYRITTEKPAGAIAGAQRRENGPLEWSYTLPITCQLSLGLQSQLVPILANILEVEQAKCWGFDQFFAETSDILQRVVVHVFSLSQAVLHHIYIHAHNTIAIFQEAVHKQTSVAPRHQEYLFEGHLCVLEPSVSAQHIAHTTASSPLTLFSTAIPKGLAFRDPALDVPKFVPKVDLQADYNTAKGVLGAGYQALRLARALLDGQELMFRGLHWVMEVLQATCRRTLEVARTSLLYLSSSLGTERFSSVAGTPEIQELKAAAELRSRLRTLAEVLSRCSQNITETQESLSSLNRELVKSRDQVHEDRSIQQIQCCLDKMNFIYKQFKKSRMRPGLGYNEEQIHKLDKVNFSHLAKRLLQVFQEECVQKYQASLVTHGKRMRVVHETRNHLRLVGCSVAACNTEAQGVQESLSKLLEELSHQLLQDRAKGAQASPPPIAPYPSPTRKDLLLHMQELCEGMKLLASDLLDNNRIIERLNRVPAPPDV

Ephrin type-A receptor 2 = Ephrin type-A receptor 2 (Homo sapiens, UniProt P29317); format: functional;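 further: EPHA2 tested as one member of a kinome-wide kinase panel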
[25] = biological target: Tyrosine-protein kinase JAK2 (Homo sapiens, UniProt O60674); format: functional;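 further: JAK2 tested as one member of a kinase panel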
[26] = biological target: Dual specificity tyrosine-phosphorylation-regulated kinase 1A (Homo sapiens, UniProt Q13627); format: functional;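 further: measured against DYRK1A as one member of a broad kinome profiling panel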

C=CCNC1=C(Cl)C(=O)c2ccccc2C1=O
AC50 [1]: 5.58 µM (active) | IC50 [2]: 10.1 µM (active) | AC50 [3]: 3.82 µM (active)

CS(=O)(=O)c1ccc2c(c1)SC1=NC(=O)/C(=C/c3ccc(O)c(O)c3)C(=N)N12
EC50 [4]: 6.35 µM (active) | IC50 (Procathepsin L): > 59.6 µM (not active)

CCOC(=O)C(C(=O)OCC)c1cc(Br)c2noc3c2c1C(=O)c1ccccc1-3
EC50 (Streptokinase A): 11.9 µM (active) | EC50 [5]: 2.9 µM (active) | CC50 [6]: 19.2 µM (active) | EC50 [7]: 9.23 µM (active) | EC50 [8]: 0.51 µM (active)

CN(C)c1ccc(-c2nnc(-c3cccs3)o2)cc1
IC50 [2]: > 100 µM (inactive)

COc1ccc(C(=O)Nc2n[nH]c3ccc(-c4cn(Cc5ccccc5)nn4)cc23)cc1OC
Ki [9]: > 1.58 µM (inactive) | Ki [10]: > 2.51 µM (inactive) | Ki [11]: 0.794 µM (active) | Ki [12]: 0.251 µM (active) | Ki (Misshapen-like kinase 1): 0.251 µM (active) | Ki [13]: 0.0501 µM (active) | Ki [14]: 0.00126 µM (active) | Ki [15]: > 1.26 µM (inactive) | Ki [16]: 1.26 µM (active) | Ki [17]: 1.26 µM (active) | Ki [18]: 0.631 µM (active) | Ki [19]: > 5.01 µM (inactive) | Ki (SRSF protein kinase 1): 1.58 µM (active) | Ki [20]: 1.58 µM (active) | Ki [21]: 5.01 µM (active) | Ki [22]: 0.0158 µM (active) | Ki [23]: 0.0794 µM (active) | Ki [24]: 0.2 µM (active) | Ki (Ephrin type-A receptor 2): > 3.16 µM (inactive) | Ki [25]: 0.126 µM (active) | Ki [26]: 0.1 µM (active)
